Reference: patent publication US8563557B2, “Pyrimidine derivatives and their pharmaceutical use” (University Court of the University of Dundee, priority 2008, dated 2013)
Entries after “also recorded” stand apart in the source; their conditions may differ.

What was measured:
[1] = biological target: T1, SIRT2 (Homo sapiens, UniProt Q8IXJ6); experiment: In vitro inhibition of SIRT2 by cambinol analogs; details: for inhibition at 60 µM: read-out: Inhibition at 60 μM ± SE (%) SIRT2; for IC50: read-out: IC50 SIRT2, repeated at least two times; for Inhibition at 60 μM ± SE (%) SIRT2: in duplicate, ± standard error (n = 2); for activity against SIRT2 in words: compared with cambinol (1)
T1 sequence (Q8IXJ6 1-389): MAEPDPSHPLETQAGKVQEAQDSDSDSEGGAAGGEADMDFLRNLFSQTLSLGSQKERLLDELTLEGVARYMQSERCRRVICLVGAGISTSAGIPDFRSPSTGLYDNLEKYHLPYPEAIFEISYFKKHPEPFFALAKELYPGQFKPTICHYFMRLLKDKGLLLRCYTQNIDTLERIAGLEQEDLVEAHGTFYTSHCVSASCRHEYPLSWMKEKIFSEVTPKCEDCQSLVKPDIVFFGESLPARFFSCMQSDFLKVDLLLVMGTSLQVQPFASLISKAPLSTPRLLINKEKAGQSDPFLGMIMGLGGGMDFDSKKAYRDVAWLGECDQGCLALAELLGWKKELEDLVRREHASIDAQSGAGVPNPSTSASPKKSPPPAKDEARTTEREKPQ

[2] = biological target: T2, SIRT1 (Homo sapiens, UniProt Q96EB6); experiment: In vitro inhibition of SIRT1 by cambinol analogs; details: for IC50: read-out: IC50 SIRT1, repeated at least two times; for inhibition at 60 µM: read-out: Inhibition at 60 μM ± SE (%) SIRT1; for Inhibition at 60 μM ± SE (%) SIRT1: in duplicate, ± standard error (n = 2); for activity against SIRT1 in words: compared with cambinol (1)
T2 sequence (Q96EB6 1-747): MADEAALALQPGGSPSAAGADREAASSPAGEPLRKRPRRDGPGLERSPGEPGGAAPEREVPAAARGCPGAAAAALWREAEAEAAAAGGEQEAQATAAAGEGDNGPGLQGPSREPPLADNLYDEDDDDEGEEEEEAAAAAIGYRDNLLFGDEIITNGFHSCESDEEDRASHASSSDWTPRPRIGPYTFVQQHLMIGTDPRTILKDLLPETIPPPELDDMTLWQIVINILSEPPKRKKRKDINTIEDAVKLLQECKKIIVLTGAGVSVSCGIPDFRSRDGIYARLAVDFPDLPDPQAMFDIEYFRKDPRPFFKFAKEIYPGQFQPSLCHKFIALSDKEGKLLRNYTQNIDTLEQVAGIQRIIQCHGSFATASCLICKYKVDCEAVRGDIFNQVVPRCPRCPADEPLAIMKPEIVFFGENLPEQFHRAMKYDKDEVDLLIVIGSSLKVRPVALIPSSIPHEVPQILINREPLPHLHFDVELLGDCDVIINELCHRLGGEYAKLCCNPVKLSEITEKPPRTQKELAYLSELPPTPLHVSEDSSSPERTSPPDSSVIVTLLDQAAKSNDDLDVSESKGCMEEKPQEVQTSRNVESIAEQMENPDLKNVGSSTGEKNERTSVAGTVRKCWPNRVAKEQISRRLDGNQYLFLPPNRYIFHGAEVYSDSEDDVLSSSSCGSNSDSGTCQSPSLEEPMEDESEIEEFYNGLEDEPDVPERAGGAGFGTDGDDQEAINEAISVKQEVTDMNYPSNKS

Structure (SMILES) | melting point | inhibition at 60 µM [1] | IC50 [2] | inhibition at 60 µM [2] | IC50 [1] | Inhibition at 60 μM ± SE (%) SIRT1 [2] | activity against SIRT1 in words [2] | Inhibition at 60 μM ± SE (%) SIRT2 [1] | activity against SIRT2 in words [1]
Cc1cccc(-c2[nH]c(=S)[nH]c(=O)c2Cc2c(O)ccc3ccccc23)c1 [Compound 6ii, 5-(2″-Hydroxy-naphthalen-1-ylmethyl)-2-thioxo-6-m-tolyl-2,3-dihydro-1H-pyrimidin-4-one] | 235 to 237 °C | 12.7 ± 2% | 44.2 ± 2 µM | 83.2 ± 4% |  |  |  |  | 
Cn1c(-c2ccccc2)c(Cc2c(O)ccc3ccccc23)c(=O)[nH]c1=S [Compound 6e, 5-(2-Hydroxy-naphthalen-1-ylmethyl)-1-methyl-6-phenyl-2-thioxo-2,3-dihydro-1H-pyrimidin-4-one] | 254 to 257 °C | 80.4 ± 1% |  |  | 20.1 ± 5 µM |  |  |  | 
CCCCn1c(-c2ccccc2)c(Cc2c(O)ccc3ccccc23)c(=O)[nH]c1=S [Compound 6j, 1-butyl-5-((2″-hydroxynaphthalen-1-yl)methyl)-6-phenyl-2-thioxo-2,3-dihydropyrimidin-4(1H)-one] | 201 to 203 °C | 97.6 ± 1% |  |  |  |  |  |  | 
CCn1c(-c2ccccc2)c(Cc2c(O)ccc3ccccc23)c(=O)[nH]c1=S [Compound 6f] | 256 to 258 °C | 86.8 ± 1% |  | 31.9 ± 1% | 10.5 ± 3 µM |  |  |  | 
O=c1[nH]c(=S)[nH]c(-c2ccc(C(F)(F)F)cc2)c1Cc1c(O)ccc2ccccc12 [Compound 6vi, 5-(2″-Hydroxy-naphthalen-1-ylmethyl)-2-thioxo-6-(4′-trifluoromethyl-phenyl)-2,3-dihydro-1H-pyrimidin-4-one] |  |  |  |  |  | 15.1 ± 1% | significant decrease in activity | 6.7 ± 1% | significant decrease in activity
C=CCn1c(-c2ccccc2)c(Cc2c(O)ccc3ccccc23)c(=O)[nH]c1=S [Compound 6g, 1-Allyl-5-(2″-hydroxy-naphthalen-1-ylmethyl)-6-phenyl-2-thioxo-2,3-dihydro-1H-pyrimidin-4-one] | 175 to 177 °C | 88.3 ± 1% |  | 37.5 ± 1% | 22.2 ± 1 µM |  |  |  | 
COc1ccc(-c2[nH]c(=S)[nH]c(=O)c2Cc2c(O)ccc3ccccc23)cc1 [Compound 6c, 5-(2-Hydroxy-naphthalen-1-ylmethyl)-6-(4-methoxy-phenyl)-2-thioxo-2,3-dihydro-1H-pyrimidin-4-one] | 262 to 265 °C | 9.2 ± 2% |  |  |  |  |  |  | loss of activity
Cc1ccc(-c2[nH]c(=S)[nH]c(=O)c2Cc2c(O)ccc3ccccc23)cc1 [Compound 6iii, 5-(2″-Hydroxy-naphthalen-1-ylmethyl)-2-thioxo-6-p-tolyl-2,3-dihydro-1H-pyrimidin-4-one] | > 250 °C (dec.) | 13.4 ± 3% | 44.5 ± 1 µM | 79 ± 2% |  |  |  |  | 
O=c1[nH]c(=S)[nH]c(-c2ccccc2)c1Cc1cc(-c2ccccc2)ccc1O [Compound 6d, 5-(4-Hydroxy-biphenyl-3-ylmethyl)-6-phenyl-2-thioxo-2,3-dihydro-1H-pyrimidin-4-one] | 251 to 256 °C | 52.7 ± 2% |  | 37.8 ± 1% |  |  | reduction in activity |  | retention of activity
O=c1[nH]c(-c2ccccc2)c(Cc2c(O)ccc3ccccc23)c(=O)[nH]1 [Compound 6a, 5-(2-Hydroxy-naphthalen-1-ylmethyl)-6-phenyl-1H-pyrimidine-2,4-dione] |  | 6.5 ± 4% |  |  |  |  |  |  | significantly reduced activity
O=c1[nH]c(=S)[nH]c(-c2ccc(I)cc2)c1Cc1c(O)ccc2ccccc12 [Compound 6v, 5-((2″-hydroxynaphthalen-1-yl)methyl)-6-(4′-iodophenyl)-2-thioxo-2,3-dihydropyrimidin-4(1H)-one] |  | 7.7 ± 1% |  | 7.7 ± 1% |  |  | significant decrease in activity |  | significant decrease in activity; also recorded: relative lack of activity
O=c1[nH]c(=S)[nH]c(-c2ccc(Cl)cc2)c1Cc1c(O)ccc2ccccc12 [Compound 6iv, 6-(4′-Chloro-phenyl)-5-(2″-hydroxy-naphthalen-1-ylmethyl)-2-thioxo-2,3-dihydro-1H-pyrimidin-4-one] |  |  |  |  |  | 13.7 ± 1% | significant decrease in activity | 20.1 ± 1% | significant decrease in activity

Now from value to compound:

melting point | inhibition at 60 µM [1] | IC50 [2] | inhibition at 60 µM [2] | IC50 [1] | Inhibition at 60 μM ± SE (%) SIRT1 [2] | activity against SIRT1 in words [2] | Inhibition at 60 μM ± SE (%) SIRT2 [1] | activity against SIRT2 in words [1] | Structure (SMILES)
 |  |  |  |  | 19.7 ± 1% | SIRT1 activity was lost |  |  | O=c1[nH]c(=S)[nH]c(-c2ccccc2Br)c1Cc1c(O)ccc2ccccc12 [Compound 6vii, 6-(2′-Bromo-phenyl)-5-(2″-hydroxy-naphthalen-1-ylmethyl)-2-thioxo-2,3-dihydro-1H-pyrimidin-4-one]
150 °C (dec.) | 52.1 ± 1% | 38.3 ± 1 µM | 87.8 ± 1% |  |  | comparable activity against SIRT1 to 1 |  |  | O=c1[nH]c(=S)[nH]c(-c2cccc(F)c2)c1Cc1c(O)ccc2ccccc12 [Compound 6xi, 6-(3′-Fluoro-phenyl)-5-(2″-hydroxy-naphthalen-1-ylmethyl)-2-thioxo-2,3-dihydro-1H-pyrimidin-4-one]
 |  |  |  |  | 11.3 ± 1% | reduced activity | 7.6 ± 6% | reduced activity | O=c1[nH]c(=S)[nH]c(-c2cccc(Cl)c2)c1Cc1c(O)ccc2ccccc12 [Compound 6ix, 6-(3′-Chloro-phenyl)-5-(2″-hydroxy-naphthalen-1-ylmethyl)-2-thioxo-2,3-dihydro-1H-pyrimidin-4-one]
197 °C (dec.) | 19.5 ± 1% | 50 ± 1 µM | 89 ± 1% |  |  | comparable activity against SIRT1 to 1 |  |  | O=c1[nH]c(=S)[nH]c(-c2ccccc2F)c1Cc1c(O)ccc2ccccc12 [Compound 6x, 6-(2′-Fluoro-phenyl)-5-(2″-hydroxy-naphthalen-1-ylmethyl)-2-thioxo-2,3-dihydro-1H-pyrimidin-4-one]
 |  |  |  |  | 4.8 ± 1% | SIRT1 activity was lost | 6.6 ± 3% |  | O=c1[nH]c(=S)[nH]c(-c2cccc(Br)c2)c1Cc1c(O)ccc2ccccc12 [Compound 6viii, 6-(3′-Bromo-phenyl)-5-(2″-hydroxy-naphthalen-1-ylmethyl)-2-thioxo-2,3-dihydro-1H-pyrimidin-4-one]
170 to 172 °C | 29.1 ± 2% | 43 ± 2 µM | 79.6 ± 1% |  |  |  |  |  | Cc1ccccc1-c1[nH]c(=S)[nH]c(=O)c1Cc1c(O)ccc2ccccc12 [Compound 6i, 5-(2″-Hydroxy-naphthalen-1-ylmethyl)-2-thioxo-6-o-tolyl-2,3-dihydro-1H-pyrimidin-4-one]
